Reference: patent US5719153A, “5H,8H-2-oxa-1,3,5,8-tetraaza-cyclopenta[b]-naphthalene-6,7-diones” (American Home Products Corporation, priority 1996, dated 1998)

Molecular target: AMPA receptor
Assay: displacement of [^3 H]-AMPA from its binding site on rat forebrain membranes
Conditions: 5 nmolar [^3 H]AMPA, 100 mmolar KSCN, 4° C., 1 hr
Protocol: A representative compound of this invention was evaluated in a standard pharmacological test procedure to determine its ability to displace [^3 H]-α-amino-3-hydroxy-5-methylisoxazole-4-propionic acid (AMPA) from its binding site on rat forebrain membranes as described in a modified assay by D. E. Murphy, E. W. Snowhill and M. Williams (Characterization of quisqualate recognition sites in rat brain tissue using DL-[^3 H]α-amino-3-hydroxy-5-methylisoxazole-4-propionic acid (AMPA) and a filtration assay, Neurochemical Research, Vol. 12, No.9, 1987, pp. 775-782). Briefly, rats were decapitated and their forebrains (whole brain minus brain stem and cerebella) were homogenized in a volume (ml) of ice cold 0.32M sucrose equivalent to 15 times the forebrain weight (gram). The homogenate was centrifuged at 1,000 g for 10 minutes and the supernatant was recentrifuged at 20,000 g for 20 min. The pellet was resuspended in ice-cold distilled water and centrifuged at 8,000 g for 20 min. The supernatant and buffy coat were centrifuged at 48,000 g for 10 min. The pellet was then resuspended in the original volume of ice-cold 50 mmolar TRIS HCl (pH 7.4) and centrifuged at 48,000 g for 10 min. The pellet was resuspended in 50 mmolar TRIS HCl containing 0.04% Triton X-100 and the homogenate was incubated at 37° C. for 30 min. The homogenate was then centrifuged at 48,000 g for 10 min. […]

Compound: O=c1[nH]c2cc3no[n+]([O-])c3cc2[nH]c1=O [Example 1, 1-Oxy-5H,8H-2-oxa-1,3,5,8-tetraaza-cyclopenta[b]naphthalene-6,7-dione]
- IC50: 7.6 µM
